From patent US5747006A, “Skin whitener composition containing acerola cherry fermentate” (Amway Corporation, priority 1997, dated 1998) come the findings set out here.

Structures are written as SMILES.

The assay has as its system tyrosinase from mushroom. Kind of assay: Inhibition of tyrosinase, absorbancy at 475 nm with tyrosine substrate. The format is biochemical. The conditions noted are these: for percent inhibition of the tyrosinase: pH 6.8 sodium acetate buffer, Example 1. On the procedure: A buffer solution A containing 50 mM sodium acetate was prepared to yield a 6.8 pH.
A test tube was charged with 2.7 ml of buffer solution A and 0.4 ml. water to define a blank. Similarly, another test tube was charged with 2.7 ml. of the tyrosine solution, 0.3 ml of water, and 0.1 ml of the tyrosinase solution to define a reference. The absorbency of the reference was measured at 475 nm over a period of time with a spectrophotometer and the absorbancy was set to zero.
A test tube was charged with 2.7 ml of the tyrosine solution, 0.1 ml. of the tyrosinase solution and 0.02% of mercaptosuccinic acid together with 0.5% acerola cherry fermentate.

Take `O=c1cc(CO)occ1O` [Comparative Example 2, kojic acid]: under “0.5 hours, Table 1”, the “Percent Inhibition (0.5 hours)” value was 91. Also, the “Percent Inhibition (24 hours)” value (24 hours, Table 1) is 92.
With `O=C(O)CC(S)C(=O)O` (stereo not shown) [compound 1, mercaptosuccinic acid], the “percent inhibition of the tyrosinase” value runs as follows: (0.5 hours) 95%; (24 hours) 77%.
